This note sets out measurements from US7465718B2, “Ansamycins having improved pharmacological and biological properties” (Conforma Therapeutics Corporation, priority 2002, dated 2008).

One data set has as its system PBMC. Description: MTS assay to measure cytotoxicity of PBMC. Type of data set: cell-based, human. The settings on record: PBMCs without virus, read-out: TC50 (μM) (50% cytotoxicity). The procedure: PBMC's in 96 well plates that were treated with compounds (without virus) were assayed for cell viability and compound toxicity using an MTS assay (CellTiter 96 Aqueous Non-Radioactivity Cell Proliferation Assay, Promega, Madison; Wis.).
In general terms: Tetrazolium dyes change colour on reduction, which living cells bring about.

The test system of a further data set is HIV-1ROJO. Put plainly: Anti-HIV PBMC assay (reverse transcriptase activity in supernatant).
A further data set has as its system Her-2. Put plainly: HER2 inhibition assay (Her-2 degradation in MCF7 cells, flow cytometry). The conditions noted are these: read-out: HER-2 degradation (IC50 nM). Type of data set: cell-based. The method, then: MCF7 cells are seeded in 24 well plates at a density of approximately 30,000 cells/well and allowed to grow for 16 hours in DMEM supplemented with 10% FBS. Drug is then added at a concentration range of 100 uM to 0.01 uM. Cells are incubated for an additional 24. […] 10,000 events were collected per sample. A fluorescence histogram was generated and the mean fluorescence intensity (mfi) of each sample was determined using Cellquest software. The background was defined as the mfi generated from cells incubated with control IgG, and was subtracted from each sample stained with the HER-2/neu Ab. Percent degradation of Her-2 was calculated as follows: % Her-2 degradation=(mfi HER-2 sample)/(mfi HER-2 untreated cells)×100 Water Solubility Studies

Data set [1] can be described thus: Water solubility studies (salts dissolved in water at room temperature). Type of data set: physicochemical. The conditions noted are these: thermodynamic from solid, HCl salt, read-out: Solubility of the HCl salt in H2O. The procedure:
Various salts were prepared as described in the example section and dissolved in water at room temperature.

The next data set has as its system A549 xenografts. Description: A549 xenograft growth in vivo. The conditions noted are these: IP injections, three consecutive days each week for four weeks. The source says: Similar efficacy has been seen with five second-generation ansamycins, some of which are being developed as back-ups to Compound#237.
For another data set, the system named is MDA435 breast tumor. Put plainly: MDA435 breast tumor model. In kind it is in vivo, nude mice. The settings on record: four courses of therapy; 25 or 30 mg/kg, 40 or 50 mg/kg. The procedure: When the tumors were ˜50 mm3 in size, the animals were randomized into groups of five (10 tumors/group). Therapy commenced under the schedule described for the A549 model. Animals were treated with vehicle (triangles) or one of two doses (25 or 30 mg/kg, squares; 40 or 50 mg/kg, circles) of drugs.

Another data set concerns SKOV-3 ovarian xenograft. Description: SKOV-3 ovarian xenograft model. In kind it is in vivo. The settings on record: tumors 200 mm3 before commencement of treatment. The text has this: Compounds have also been tested in HER-2 over-expressing tumor models such as BT474 breast and SKOV-3 ovarian carcinoma A therapy experiment with SKOV-3 is shown in FIG. 6. The treatment, doses, and schedule were the same as used in the A549 and MDA435 experiments. In this case, the tumors were allowed to become established and grow to a relatively large size (200 mm3) before commencement of treatment.

Data set [2] deals with primary human breast tumor xenograft. Put plainly: Transplantable primary human breast tumor xenograft model. In kind it is in vivo. The settings on record: 30 mg/kg intraperitoneally. For orientation: In xenograft studies the graft and the host belong to different species.
Data set [3] concerns HSP90 (cell lysate, high affinity). Put plainly: Biotin-geldanamycin competition binding, HSP90 in cell lysate (high affinity).
The next data set addresses rHsp90 (low affinity). Description: Biotin-geldanamycin competition binding, purified native HSP90 protein (rHsp90, low affinity). The conditions noted are these: read-out: rHsp90 (low affinity) IC50 nM; inhibition of biotin-GM binding to purified HSP90, 4° C.

Each structure is given as a SMILES string. Where only a bound is given, the exact number is not on record here.

Usually IC50 stands for the concentration at which inhibition is half-maximal. Take `Cc1cn([C@H]2C[C@H](N=[N+]=[N-])[C@@H](CO)O2)c(=O)[nH]c1=O` [AZT Control, reference compound]: the CC50 in the data set on PBMC is greater than 1 µM. The “TI (therapeutic index, TC50/IC50)” value in the data set with HIV-1ROJO (HIV-1ROJO in PBMCs) is reported as greater than 197.6. For the same molecule, the IC50 with HIV-1ROJO (read-out: IC50 (μM) (50% inhibition of virus replication), HIV-1ROJO in fresh human PBMCs, 7 days) worked out at 0.0051 µM.
For orientation: solubility means the concentration that dissolves in the medium under given conditions. One may read the melting point as the temperature of the solid-liquid transition. As to `COC1C=CC=C(C)C(=O)NC2=CC(=O)C(NCCCNCCCNC3=C4CC(C)CC(OC)C(O)C(C)C=C(C)C(OC(N)=O)C(OC)C=CC=C(C)C(=O)NC(=CC3=O)C4=O)=C(CC(C)CC(OC)C(O)C(C)C=C(C)C1OC(N)=O)C2=O` (stereo not shown) [Compound #237], the melting point stood at 165 °C. Moreover, the IC50 in the data set on Her-2 came to 20 nM. In data set [1], the solubility was no less than 13 mg/mL. For the same molecule, the “growth of A549 xenografts” value in the data set on A549 xenografts is recorded as “blocks the growth”. In addition, the “inhibition of tumor growth in MDA435” value in the data set with MDA435 breast tumor is given as 70 to 100%. Further, the “tumor growth in SKOV-3 xenograft” value in the data set with SKOV-3 ovarian xenograft was “suppressed tumor growth almost completely”. The “tumor growth inhibition in primary human breast tumor xenograft” value in data set [2] was 86%. Moreover, the ratio in data set [3] (rHsp90 (low affinity) IC50 over lysate (high affinity) IC50) is reported as 67. For the same molecule, in data set [3] (read-out: Lysate (high affinity) IC50 nM, inhibition of biotin-GM binding to HSP90 in cell lysate, 4° C.), the IC50 was 30 nM. Further, the 50% inhibitory concentration (IC50) at rHsp90 (low affinity) amounted to 2000 nM.
